We go through one compound from US20220225597A1, “MOUSE MODEL FOR ASSESSING TOXICITIES ASSOCIATED WITH IMMUNOTHERAPIES” (Juno Therapeutics, Inc., priority 2017, published 2022).

The test system of series [1] is BALB/c mice. In kind it is in vivo, mouse. How it is done:
Various parameters relating to toxicity were assessed in BALB/c mice produced to develop B cell aplasia following administration of an immunotherapy involving anti-CD19 CAR T cells substantially as described in Example 2.
At 24, 48, and 72 hours after infusion with cell compositions, the three healthiest mice from each group were anesthetized, transcardially perfused with phosphate buffered saline (PBS) to flush brain blood vessels, and sacrificed. Blood and tissue samples (spleen, kidney, liver and brain) were collected for analysis of immune cell populations, gene expression, and blood chemistry. The blood and tissue samples were either processed for flow cytometry or were snap-frozen for RNA sequencing (RNA-Seq) analysis. For flow cytometry, tissue samples were digested and cell suspensions were layered over a density gradient to enrich immune cell populations.

In series [2] the test system is BALB/c mice. Description: Serum chemistry profiles. Conditions: various time points following cell treatment. How it is done: The serum was stored at −20° C. prior to analysis for complete serum chemistry panels, including for levels of serum glucose, albumin, albumin to globulin (A/G) ratio, globulin, total protein, calcium, phosphorus, ALT, AST, and BUN enzymes.

Series [3] relates to BALB/c mice. Description: Survival in mouse model of toxicity (CPA, then muCAR-T or mock cells). In kind it is in vivo. The note with it: 250 mg/kg CPA alone i.p.; tumor-free BALB/c mice. How it is done: (§1) A single dose of either 100 mg/kg or 250 mg/kg cyclophosphamide (CPA) was injected into naïve BALB/c mice (tumor-free) by intraperitoneal (i.p.) injection. Twenty-four hours later, about 5×10^6 mouse CAR-expressing T cells or mock (control) cells, generated as described in Example 1, were transferred into mice by intravenous injection into the lateral tail vein. As a control, mice were injected with CPA alone or were left untreated. Table E1 sets forth the treatment groups.

For another series, the system named is A20 cells. Description: Tumor burden by histology. In kind it is in vivo, mouse. Conditions: mice having received A20 cells i.v. How it is done: To examine the effects of tumor burden on the toxicity following B cell aplasia in mice, BALB/c mice were injected with CD19-expressing A20 cells prior to treatment with CPA and mouse anti-CD19 CAR−T cells. A20 cells are a cell line of B lymphocytes derived from a spontaneous reticulum cell neoplasm in a BALB/cAnN mouse. As the cell line was originally derived from cells of an individual of a BALB/c mouse substrain, the cells are syngenic to the BALB/c mice and can be administered into an immunocompetent BALB/c mouse without triggering an immune response.
BALB/c mice were injected intravenously with A20 cells. […] Table E3 sets forth the treatment groups.
Tumor burden also was assessed by histology in treated mice.

The subject of series [4] is BALB/c mice. In kind it is in vivo, mouse. On the procedure:
as §1
Blood samples were collected from treated mice at days 3, 10, 17, 31 and, in some mice at day 43, following cell infusion. The pharmacokinetics (PK) in the blood of administered cells was assessed by detection of the surrogate marker Thy 1.1. The number of circulating B cells, T cells and CD11b+ cells in the blood at the time points following treatment also was assessed.
This is another data set of the same source.

`O=P1(N(CCCl)CCCl)NCCCO1` (centres unmarked) [CPA, cyclophosphamide]: in the series on BALB/c mice [1] (250 mg/kg CPA pre-conditioning, continued to drop at least for 72 hours), the “circulating CD45+ live cells, CD11b+ cells, endogenous T cells and endogenous B cells in blood” value is reported as “depletion”. For the same compound, the “immune cells in brain tissue, including endogenous T cells and endogenous B cells” value in the series on BALB/c mice [1] (CPA pre-conditioning) is reported as “depleted”. In addition, the “immune cells (endogenous T cells, B cells, CD45+ cells, CD11b+ cells) in spleen, kidney and liver” value in the series with BALB/c mice [1] (treatment with CPA) is reported as “depletion”. In addition, in the series with BALB/c mice [2], the “serum Albumin to Globulin ratio (A/G ratio)” value was “significantly reduced”. Moreover, the Survival in the series on BALB/c mice [3] was 100%. In addition, in the series with A20 cells, the “A20 tumor masses in liver and spleen tissues” value is “observed in some”. Also, the “levels of circulating B cells” value in the series on BALB/c mice [4] (250 mg/kg CPA than 100 mg/kg CPA) was “reduced levels of circulating B cells to a greater degree”. In the series on BALB/c mice [4] (100 or 250 mg/kg CPA i.p., blood), the “circulating B cells, T cells, and CD11b+ cells” value is reported as “depleted”.
